Experiment [1] addresses Ribosomal protein S6 kinase alpha-3 (Homo sapiens, UniProt P51812). Kind of experiment: Selectivity interaction (Kinase panel (KiNativ target engagement assay in Jurkat cells)) EUB0001635a RPS6KA3. As to conditions: Selectivity number of off-targets 0.0, Selectivity number of targets 233.0, Source Knowledge https://www.sciencedirect.com/science/article/pii/S2451945619300674?via%3Dihub, at 1 µM. In kind it is cell-based.

The target of experiment [2] is T1, Serine/threonine-protein kinase Nek11 (Homo sapiens) (UniProt Q8NG66).
T1 sequence (whole entry): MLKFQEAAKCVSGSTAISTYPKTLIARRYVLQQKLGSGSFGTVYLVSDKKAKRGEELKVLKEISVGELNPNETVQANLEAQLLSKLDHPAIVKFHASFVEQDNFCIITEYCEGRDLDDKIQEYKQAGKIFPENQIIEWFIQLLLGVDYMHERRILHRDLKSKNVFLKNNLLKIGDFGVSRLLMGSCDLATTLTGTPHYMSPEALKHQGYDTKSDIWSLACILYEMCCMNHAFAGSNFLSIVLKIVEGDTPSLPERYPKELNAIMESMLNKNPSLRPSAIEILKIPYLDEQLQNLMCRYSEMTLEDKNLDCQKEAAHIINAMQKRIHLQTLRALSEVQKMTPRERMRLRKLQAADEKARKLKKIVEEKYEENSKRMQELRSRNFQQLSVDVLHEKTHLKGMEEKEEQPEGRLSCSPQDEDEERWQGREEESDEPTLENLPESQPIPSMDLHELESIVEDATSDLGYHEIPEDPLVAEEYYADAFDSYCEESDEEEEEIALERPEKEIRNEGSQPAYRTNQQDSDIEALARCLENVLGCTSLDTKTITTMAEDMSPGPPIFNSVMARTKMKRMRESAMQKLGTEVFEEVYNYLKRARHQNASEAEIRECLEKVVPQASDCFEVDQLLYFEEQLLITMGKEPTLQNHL
Kind of experiment: Selectivity interaction (KinomeScan (DiscoverX)) EUB0000607a NEK11. The following applies: at 10 µM.

The target in experiment [3] is Mitogen-activated protein kinase 3 (Homo sapiens, UniProt P27361). Kind of experiment: Selectivity interaction (SelectScreen profiling (Invitrogen)) EUB0000607a MAPK3. The following applies: at 2 µM.
The target of experiment [4] is Phosphatidylinositol 4-kinase beta (Homo sapiens, UniProt Q9UBF8). As to conditions: at 10 µM.
Experiment [5] deals with Ribosomal protein S6 kinase alpha-5 (Homo sapiens) (UniProt O75582). Kind of experiment: Selectivity interaction (Kinase panel (DSF assay)) EUB0001558a RPS6KA5. In general terms: Differential scanning fluorimetry follows unfolding on heating by fluorescence.
Experiment [6] has as its target Tyrosine-protein kinase ABL1 (Homo sapiens, UniProt P00519). Kind of experiment: Selectivity interaction (Kinase panel (literature)) EUB0001199aCl ABL1. As to conditions: at 1 µM.
In experiment [7] the target is Cyclin-dependent kinase 7 (Homo sapiens, UniProt P50613). In words: Selectivity interaction (ActivX KiNativ screen (kinase selectivity in THP-1 cell lysates)) EUB0000639a CDK7. It is filed as subcellular. The following applies: lysate, at 0.04 µM.
The target of the next experiment is Activated CDC42 kinase 1 (Homo sapiens, UniProt Q07912). Kind of experiment: Selectivity interaction (Kinase panel (Invitrogen)) EUB0000639a TNK2. The following applies: at 200 nM.
Experiment [8] addresses T2, Mitogen-activated protein kinase kinase kinase kinase 3 (Homo sapiens) (UniProt Q8IVH8).
T2 sequence (whole entry): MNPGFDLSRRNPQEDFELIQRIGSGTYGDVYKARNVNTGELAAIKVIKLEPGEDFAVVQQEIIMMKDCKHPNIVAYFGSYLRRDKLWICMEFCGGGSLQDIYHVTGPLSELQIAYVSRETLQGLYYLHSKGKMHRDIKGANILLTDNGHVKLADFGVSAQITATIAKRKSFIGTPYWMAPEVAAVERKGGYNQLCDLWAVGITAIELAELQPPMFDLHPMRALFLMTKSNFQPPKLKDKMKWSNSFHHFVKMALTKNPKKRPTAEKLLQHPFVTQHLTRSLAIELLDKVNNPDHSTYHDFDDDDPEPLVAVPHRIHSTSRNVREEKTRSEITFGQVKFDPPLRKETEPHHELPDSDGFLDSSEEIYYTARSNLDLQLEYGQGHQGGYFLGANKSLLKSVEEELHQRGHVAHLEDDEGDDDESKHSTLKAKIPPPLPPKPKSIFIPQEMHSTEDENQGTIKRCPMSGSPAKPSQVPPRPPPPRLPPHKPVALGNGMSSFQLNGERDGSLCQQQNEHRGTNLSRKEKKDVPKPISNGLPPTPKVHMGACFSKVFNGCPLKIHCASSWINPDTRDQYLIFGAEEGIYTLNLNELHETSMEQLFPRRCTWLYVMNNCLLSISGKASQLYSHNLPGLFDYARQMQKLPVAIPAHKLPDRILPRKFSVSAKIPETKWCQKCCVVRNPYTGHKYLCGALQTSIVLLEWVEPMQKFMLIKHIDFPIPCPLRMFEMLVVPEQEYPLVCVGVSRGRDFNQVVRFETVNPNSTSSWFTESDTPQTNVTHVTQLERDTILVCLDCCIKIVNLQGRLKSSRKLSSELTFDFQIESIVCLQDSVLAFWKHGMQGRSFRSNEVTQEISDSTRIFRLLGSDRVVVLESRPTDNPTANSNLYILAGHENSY
Kind of experiment: Selectivity interaction (KinomeScan (DiscoverX)) EUB0000618a MAP4K3. As to conditions: at 10 µM.

The structures appear in SMILES notation.

Mitogen-activated protein kinase 3, sequence (P27361 whole entry): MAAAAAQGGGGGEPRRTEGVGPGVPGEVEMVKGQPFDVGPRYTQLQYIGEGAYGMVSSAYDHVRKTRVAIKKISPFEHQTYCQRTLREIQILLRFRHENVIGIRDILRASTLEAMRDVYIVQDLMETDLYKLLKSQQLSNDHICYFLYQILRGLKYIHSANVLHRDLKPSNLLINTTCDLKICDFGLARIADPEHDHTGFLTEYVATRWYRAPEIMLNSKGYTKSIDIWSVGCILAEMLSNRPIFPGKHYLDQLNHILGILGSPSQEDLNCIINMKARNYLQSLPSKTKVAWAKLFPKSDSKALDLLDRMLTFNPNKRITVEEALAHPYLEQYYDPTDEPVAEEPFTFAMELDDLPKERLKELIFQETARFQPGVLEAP
Ribosomal protein S6 kinase alpha-5 (Homo sapiens), sequence (O75582 whole entry, looked up): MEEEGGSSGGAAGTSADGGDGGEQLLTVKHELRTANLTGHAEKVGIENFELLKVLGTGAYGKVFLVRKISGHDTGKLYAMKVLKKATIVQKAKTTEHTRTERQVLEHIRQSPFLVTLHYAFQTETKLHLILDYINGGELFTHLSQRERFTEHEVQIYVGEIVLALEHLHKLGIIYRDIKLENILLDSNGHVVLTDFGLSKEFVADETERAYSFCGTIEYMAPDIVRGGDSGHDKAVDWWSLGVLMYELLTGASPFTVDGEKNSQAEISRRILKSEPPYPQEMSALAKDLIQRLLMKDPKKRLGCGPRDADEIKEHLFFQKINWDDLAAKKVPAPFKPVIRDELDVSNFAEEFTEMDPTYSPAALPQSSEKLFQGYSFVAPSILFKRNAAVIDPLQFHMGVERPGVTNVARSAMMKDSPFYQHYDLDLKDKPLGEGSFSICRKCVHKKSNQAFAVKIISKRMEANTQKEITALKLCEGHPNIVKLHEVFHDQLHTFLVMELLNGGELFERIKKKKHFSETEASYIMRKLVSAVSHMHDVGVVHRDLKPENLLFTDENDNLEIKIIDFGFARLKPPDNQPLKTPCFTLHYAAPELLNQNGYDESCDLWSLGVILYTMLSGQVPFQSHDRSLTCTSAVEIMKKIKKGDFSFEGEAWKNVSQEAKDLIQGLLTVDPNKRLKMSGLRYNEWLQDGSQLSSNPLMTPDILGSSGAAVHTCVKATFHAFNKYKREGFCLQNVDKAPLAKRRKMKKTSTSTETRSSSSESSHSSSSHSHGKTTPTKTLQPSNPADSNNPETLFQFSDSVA
Activated CDC42 kinase 1, sequence (Q07912 whole entry, looked up): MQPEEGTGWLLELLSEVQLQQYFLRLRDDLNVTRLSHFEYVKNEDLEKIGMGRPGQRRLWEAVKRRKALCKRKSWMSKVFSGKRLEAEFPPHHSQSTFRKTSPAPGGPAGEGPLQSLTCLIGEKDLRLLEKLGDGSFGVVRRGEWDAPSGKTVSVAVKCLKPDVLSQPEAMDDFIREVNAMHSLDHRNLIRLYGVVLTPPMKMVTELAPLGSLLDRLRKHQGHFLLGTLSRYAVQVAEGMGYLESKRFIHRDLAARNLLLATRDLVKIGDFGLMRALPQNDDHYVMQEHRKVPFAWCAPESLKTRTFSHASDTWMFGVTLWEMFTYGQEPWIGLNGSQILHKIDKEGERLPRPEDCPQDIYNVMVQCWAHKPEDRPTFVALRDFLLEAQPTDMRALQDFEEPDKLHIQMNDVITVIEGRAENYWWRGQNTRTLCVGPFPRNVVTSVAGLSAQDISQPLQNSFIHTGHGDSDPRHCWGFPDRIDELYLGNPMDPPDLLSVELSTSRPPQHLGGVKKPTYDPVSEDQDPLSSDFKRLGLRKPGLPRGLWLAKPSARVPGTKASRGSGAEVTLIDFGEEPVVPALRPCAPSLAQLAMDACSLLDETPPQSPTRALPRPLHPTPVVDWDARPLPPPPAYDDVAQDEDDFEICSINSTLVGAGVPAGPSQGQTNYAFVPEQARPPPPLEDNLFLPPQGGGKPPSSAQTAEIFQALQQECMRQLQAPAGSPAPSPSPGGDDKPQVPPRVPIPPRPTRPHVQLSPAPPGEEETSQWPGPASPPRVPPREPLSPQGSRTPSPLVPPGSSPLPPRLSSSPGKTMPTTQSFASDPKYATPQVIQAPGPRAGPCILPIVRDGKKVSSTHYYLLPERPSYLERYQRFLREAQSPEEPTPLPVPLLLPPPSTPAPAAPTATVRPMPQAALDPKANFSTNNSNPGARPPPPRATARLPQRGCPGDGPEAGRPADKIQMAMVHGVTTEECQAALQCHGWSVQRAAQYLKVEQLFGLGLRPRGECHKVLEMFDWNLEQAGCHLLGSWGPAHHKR
Phosphatidylinositol 4-kinase beta, sequence (Q9UBF8 2-816 limits assumed): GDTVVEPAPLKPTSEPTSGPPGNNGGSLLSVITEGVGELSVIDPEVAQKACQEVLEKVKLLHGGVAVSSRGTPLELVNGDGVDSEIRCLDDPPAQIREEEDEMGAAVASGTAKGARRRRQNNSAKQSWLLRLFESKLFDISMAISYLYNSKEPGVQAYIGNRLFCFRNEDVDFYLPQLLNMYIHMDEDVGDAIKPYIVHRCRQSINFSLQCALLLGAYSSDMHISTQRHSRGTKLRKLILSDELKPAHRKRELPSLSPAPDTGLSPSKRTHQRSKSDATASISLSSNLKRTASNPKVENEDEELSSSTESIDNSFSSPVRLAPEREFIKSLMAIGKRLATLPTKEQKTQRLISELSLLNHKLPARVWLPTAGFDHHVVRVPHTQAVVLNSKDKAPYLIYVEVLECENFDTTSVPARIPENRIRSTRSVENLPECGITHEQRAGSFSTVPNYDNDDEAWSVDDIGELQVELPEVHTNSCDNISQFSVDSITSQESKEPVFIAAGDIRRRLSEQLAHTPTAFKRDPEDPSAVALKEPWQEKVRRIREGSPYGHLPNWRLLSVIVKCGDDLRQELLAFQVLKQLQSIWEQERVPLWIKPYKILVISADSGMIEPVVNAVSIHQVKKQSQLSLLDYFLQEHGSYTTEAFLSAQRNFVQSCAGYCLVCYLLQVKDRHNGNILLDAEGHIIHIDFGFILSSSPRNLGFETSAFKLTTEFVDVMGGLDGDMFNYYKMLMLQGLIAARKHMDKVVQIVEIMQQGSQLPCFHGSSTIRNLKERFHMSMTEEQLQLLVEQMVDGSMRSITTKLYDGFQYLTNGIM
Tyrosine-protein kinase ABL1, sequence (P00519 whole entry): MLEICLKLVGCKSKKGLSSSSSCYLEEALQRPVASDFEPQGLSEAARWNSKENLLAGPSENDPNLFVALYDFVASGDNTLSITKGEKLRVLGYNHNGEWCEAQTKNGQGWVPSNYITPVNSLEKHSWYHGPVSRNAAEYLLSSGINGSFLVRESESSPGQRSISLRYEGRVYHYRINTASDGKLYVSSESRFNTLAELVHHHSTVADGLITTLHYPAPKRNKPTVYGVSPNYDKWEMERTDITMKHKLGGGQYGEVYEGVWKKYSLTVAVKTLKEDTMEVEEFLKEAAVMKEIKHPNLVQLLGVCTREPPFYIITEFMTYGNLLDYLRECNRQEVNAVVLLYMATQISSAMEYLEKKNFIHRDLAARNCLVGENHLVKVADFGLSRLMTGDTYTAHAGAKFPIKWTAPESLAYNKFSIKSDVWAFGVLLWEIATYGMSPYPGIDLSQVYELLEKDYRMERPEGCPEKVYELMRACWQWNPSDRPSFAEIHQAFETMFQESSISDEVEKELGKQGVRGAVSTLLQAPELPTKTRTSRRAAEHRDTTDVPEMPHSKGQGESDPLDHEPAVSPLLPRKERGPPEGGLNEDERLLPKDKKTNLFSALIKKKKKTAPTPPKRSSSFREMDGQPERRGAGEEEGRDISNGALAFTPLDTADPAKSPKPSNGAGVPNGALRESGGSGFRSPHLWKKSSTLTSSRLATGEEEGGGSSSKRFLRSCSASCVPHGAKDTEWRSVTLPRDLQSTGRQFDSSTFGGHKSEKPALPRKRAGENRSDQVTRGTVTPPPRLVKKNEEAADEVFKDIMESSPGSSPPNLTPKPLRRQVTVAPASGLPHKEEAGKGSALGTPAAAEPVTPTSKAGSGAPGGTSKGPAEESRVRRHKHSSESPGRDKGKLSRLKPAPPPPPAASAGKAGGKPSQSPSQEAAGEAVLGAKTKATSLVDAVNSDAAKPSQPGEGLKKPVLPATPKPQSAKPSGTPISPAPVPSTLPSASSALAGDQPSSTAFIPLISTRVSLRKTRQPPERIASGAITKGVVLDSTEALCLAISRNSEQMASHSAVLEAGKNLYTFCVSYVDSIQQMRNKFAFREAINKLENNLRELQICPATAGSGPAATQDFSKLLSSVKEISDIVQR
Cyclin-dependent kinase 7, sequence (P50613 whole entry): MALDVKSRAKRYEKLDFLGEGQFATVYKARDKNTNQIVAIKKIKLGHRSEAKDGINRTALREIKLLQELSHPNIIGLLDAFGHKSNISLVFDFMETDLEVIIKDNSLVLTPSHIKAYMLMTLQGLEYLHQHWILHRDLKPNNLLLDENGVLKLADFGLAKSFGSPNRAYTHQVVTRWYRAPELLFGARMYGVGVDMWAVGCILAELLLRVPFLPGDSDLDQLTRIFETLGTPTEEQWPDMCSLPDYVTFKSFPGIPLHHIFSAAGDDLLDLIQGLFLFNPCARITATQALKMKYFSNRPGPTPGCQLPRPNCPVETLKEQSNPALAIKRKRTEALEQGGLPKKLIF

In the case of `C=CC(=O)Nc1ccc(C(=O)Nc2[nH]nc3c2CN(C(=O)N[C@H](CN(C)C)c2ccccc2)C3(C)C)cc1`, the % of engagement in experiment [1] is -18.2%.

`CNC(=O)Nc1ccc(-c2nc(N3CC4CCC(C3)O4)c3cnn(C4CCC5(CC4)OCCO5)c3n2)cc1`: the % of control in [2] stood at 99%. In experiment [3], the % of inhibition came out at 1%.

The compound `Cc1cc([C@@H](C)Nc2ccccc2C(=O)O)c2nc(N3CCOCC3)cc(=O)n2c1` [AZD-6482] displayed a % of control in experiment [4] of 100%.

For the compound `CC(C)(O)[C@H](F)CN1Cc2cc(NC(=O)c3cnn4cccnc34)c(N3CCOCC3)cc2C1=O`, the dTM in experiment [5] amounted to 0.5 K.

Take `CN1Cc2nccc(-c3cn(C)nc3-c3ccc(F)cc3)c2C1=O`: the % of inhibition in [6] came out at 1%.

With `CC[C@@H]1[C@H](F)C(=O)N[C@@H]1COc1nccc2cc(C(N)=O)c(OC)cc12` [ZIMLOVISERTIB], the % of inhibition is -3.7% in experiment [7] and -1.67% at Activated CDC42 kinase 1.

As to `O[C@H]1CC[C@H](Nc2ncc3nc(Nc4c(F)cc(F)cc4F)n([C@H]4CCOC4)c3n2)CC1`, the % of control in experiment [8] turned out to be 85%.

Source of the values: ChEMBL document CHEMBL5465560, “Selectivity Literature for EUbOPEN Chemogenomic Library” (2024).
